Marks after values point to notes of the source that are not given here.
What was measured:
[1] = tested on: brain protein synthesis; assay: Brain protein synthesis, (14C) leucine incorporation in cell free brain homogenate; assay type: in vivo, mice of DBA/2 strains; conditions: mice, injected 1.0 mg/kg each, control 901
Method: It is known that an age-dependent decline in animal brain protein synthesis. The decreased incorporation of amino acids into proteins can be observed in vitro including brain slices, brain cell suspensions, cell free brain homogenate preparations from older animals. Four months of male mice of DBA/2 strains used in experiment. Mice of HUE group injected HUE and dose was 0.1, 0.5 and 1.0 mg/kg. Mice of control group were injected by same value of saline. Mice killed and brain was rapidly removed. Cell free brain homogenate preparations used in experiment. (^14C) leucine mixed with homogenate suspension was incubated at 37° C. Homogenate precipitated with 10% trichloroacetic acid (TCA) and filtered onto glass fiber filters. The filters were washed with phosphate-buffered saline and placed in scintillation vials 10 ml of scintillation solution (which containing […]) were added to digested solution and determined at LSC and radioactive emissions were counted.

[2] = tested on: Ca++ concentration of brain cells; assay: Ca++ concentration of brain cell; assay type: in vivo; conditions: control 112
Method: Method of animal is as same as example 7.
Ca^++ concentration of brain cell was determined.

[3] = tested on: RNA synthesis of brain cells; assay: RNA synthesis of brain cells, 3H-U incorporation in cell free brain homogenate; assay type: in vivo, mice of DBA/2 strains; conditions: mice, injected 1.0 mg/kg, control (saline) 1280
Method: It is known that decline RNA content in cortical and cerebral cortex of AD. RNA of brain cell was determined.
Four months of male mice of DBA/2 strains used in experiment. Mice of treatment group injected HUE or CLE (dose was 1.0 mg/kg). Mice of control group were injected by same value of saline. Mice killed and brain was rapidly removed. Cell free brain homogenate preparations used in experiment. 0.5 μC ^3H-U (20 μCi/mM) was mixed with 1 ml homogenate suspension was incubated at 37° C. Homogenate precipitated with 10% trichloroacetic acid (TCA) and filtered onto glass fiber filters. The filters were washed with phosphate-buffered saline and placed in scintillation vials 10 ml of scintillation solution (which containing […]) were added to digested solution and determined at LSC and radioactive emissions were counted.

[4] = tested on: male mice of PBA/2 strains; assay: Effect on memory (2): anisodine-caused mistake of memory; assay type: in vivo; conditions: anisodine model, dose 50 mg/kg each (50 + 50 for combination), control 38.5 ± 4.0, normal 5.0 ± 1.2
Method: Four months of male mice of PBA/2 strains used in experiments. […] The control group was injected saline. Complex learning measures and memory were determined in experiments. (Reference see “Mammalian Models for Research on Aging”, pp 23-180, edited by Committee on Animal Models for Research on Aging, Institute of Laboratory Animal resources, division of Biological Sciences and Assembly of Life Science, published by National Academy Press, Washington, D.C., 1981). Normal animals injected by saline. Control animals injected by anisodine. Anisodine caused mistake of memory.

[5] = tested on: DA in brain; assay: Concentration of dopamine (DA) in brain; assay type: in vivo; conditions: 10 mg/kg each; control 880 ± 97
Excerpt: The effect of CLE and HUE on concentration of dopanmine (DA) was examined. The method of animal is as same as mentioned previously.

[6] = tested on: N2a neuroblastoma cells exposed to Aβ; assay: Viability of N2a neuroblastoma cells exposed to Alzheimer amyloid β protein; assay type: cell-based; conditions: 50 μm Aβ for 24 hours, HUE 50 μg/ml, βA alone 35.4, normal 97.5
Excerpt: In AD, the protein forms aggregates of insoluble β-pleated sheets of fibrillar βA protein(amyloid). The conformational change from soluble to fibrillar forms seems to be a spontaneous event. The fibrillization is increased with higher concentrations of βA and with the longer forms of βA, so any production of larger amounts of βA than normal or production of the larger, less soluble forms of βA will tend to increase plaque formation. Once the βA plaque has started to form, other molecules can interact with the nascent plaque to produce eventually the mature plaque with its associated areas of cell death. In present study, effect of HUE on neuroblastoma cells exposed to the Alzheimer amyloid β protein and Aβ was examined.
N2a neuroblastoma cells were cultured and then exposed to 50 μm Aβ for 24 hours.
Concentration of HUE was 50 μg/ml. Cells viability determined by fluorescent staining, iodide and the trypan blue exclusion methods were used in experiments.

[7] = tested on: LTP in CAI area of brain; assay: Long-term potentiation (LTP) by electro-physiological method; assay type: in vivo; conditions: control 8
Excerpt: The long-term potentiation (LTP) is model of information stored in brain. LTP is as an index determined by electro-physiological method and express as mv in CAI area of brain.

[8] = tested on: superoxide anion of pig brain; assay: Postischemic SOD-inhibitable NBT reduction (superoxide anion generation) in pig brain; assay type: in vivo; conditions: piglets, ischemia-reperfusion, pretreated with HUE 0.5 mg/kg; ischemia-reperfusion control 12.9 ± 2.0, normal 2.8 ± 0.3
Method: Reperfusion injury after prolonged ischemia appeared to oxygen species of cerebral. The superoxide dismutase (SOD)-inhibitable nitroblue tetrazolium (NBT) reduction was determined as an index of superoxide anion generation in pig brain. In present study, effect of HUE on postischemic SOD-inhibitable NBT reduction was determined.
Piglets (1 kg) of either sex were anesthetized Anesthesia was maintained with α-chloralose. A catheter was inserted into a femoral artery to record blood pressure and to sample for blood gases and pH. Another catheter was placed in a femoral vein for injection of drugs. The trachea was cannulated, and the piglets were ventilated with room air. Body temperature was maintained at 37-38° C. with a water-circulating heating pad. Total cerebral ischemia was performed.
SOD-inhibitable NBT reduction was determined as an index of superoxide anion production. In control group, the piglets treated with vehicle (CSF). In treatment group, the piglets pretreated with HUE (0.5 mg/kg). SOD-inhibitable NBT reduction was determined for 20 minutes. For analysis, the slices were minced and homogenized in 1 N NaOH and 0.1% sodium dodecyl sulfate, the mixture centrifuged at 20,000 g for 20 min, the resulting supernatant discarded, and the pellet resuspended in 3 ml pyridine. […] The concentration of formazan in the resulting solution was determined spectrophotometrically at 515 nm.

[9] = tested on: male mice of PBA/2 strains; assay: Effect on memory (1): complex learning measures and memory in mice; assay type: in vivo; conditions: injected, normal = 100
Method: Four months of male mice of PBA/2 strains used in experiments. […] Mice of HUE group were injected 0.1, 0.5 and 1.0 mg/kg of HUE. The control group was injected saline. Complex learning measures and memory were determined in experiments. (Reference see “Mammalian Models for Research on Aging”, pp 23-180, edited by Committee on Animal Models for Research on Aging, Institute of Laboratory Animal resources, division of Biological Sciences and Assembly of Life Science, published by National Academy Press, Washington, D.C., 1981). Normal animals injected by saline. Control animals injected by anisodine. Anisodine caused mistake of memory.

## Clausenamide [CLE]
[1]
  CPM ((14C) leucine into protein): 1580 CPM
[2]
  Ca^++: 220 µmol/L
[3]
  CPM (3H-U into RNA): 1540 CPM
[4]
  Number of mistake: *11.2 ± 2.0
[5]
  DA (ng/g brain): 1560 ± 102 ng/g brain
[6]
  Cells viability (%): 70.5* %
[7]
  LTP (mv in CAI): 13 mv

## C/C=C1\[C@H]2C=C(C)C[C@]1(N)c1ccc(=O)[nH]c1C2 [HUE, Huperzine]
[1]
  CPM ((14C) leucine into protein): 2640 CPM
[2]
  Ca^++: 160 µmol/L
[3]
  CPM (3H-U into RNA): 1860 CPM
[8]
  Pmol NBT/mm^2, 20 min (SOD-inhibitable NBT reduction): 4.2 ± 0.5 Pmol NBT/mm^2, 20 min
[4]
  Number of mistake: *10.8 ± 1.5
[5]
  DA (ng/g brain): 1280 ± 120 ng/g brain
[6]
  Cells viability (%): 80.2* %
[7]
  LTP (mv in CAI): 10 mv
[9]; 0.1 mg/kg
  Increasing memory (%): 150%
[9]; 0.5 mg/kg
  Increasing memory (%): 210%
[9]; 1.0 mg/kg
  Increasing memory (%): 350%

— patent publication US6486169B1, “Botanical drug for treatment and prevention of alzhimer's disease” (priority 2002, dated 2002)
